Assay results as given in PubChem BioAssay AID1963959 (Molecular Pharmacology Branch, DTP, NCI, 2024).

Tested on: T-47D spheroids with HUVEC/MSC, viability
Experiment: Anticancer human tumor T-47D cell line growth inhibition [PI3K];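 further: spheroids exposed to agents for seven days before reading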;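 on viability, T/C: percent of DMSO vehicle control luminescence so 100% = untreated growth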
Conditions: for IC50: curve of first compound; for viability, T/C: stronger effect = lower value
In short: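 Combination activity was assessed by viability in multicellular tumor spheroids carrying HUVEC and MSC components. Agents were tested with PI3K inhibitors from a Cmax-based top dose (or 10 microM) downward in half-log increments.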

[1] = second compound 0.00316 µM, first compound 0.0316 µM
[2] = second compound 0.00316 µM, first compound 0.1 µM
[3] = second compound 0.00316 µM, first compound 0.316 µM
[4] = second compound 0.00316 µM, first compound 1 µM
[5] = second compound 0.01 µM, first compound 0.0316 µM
[6] = second compound 0.01 µM, first compound 0.1 µM
[7] = second compound 0.01 µM, first compound 0.316 µM
[8] = second compound 0.01 µM, first compound 1 µM
[9] = second compound 0.0316 µM, first compound 0.0316 µM
[10] = second compound 0.0316 µM, first compound 0.1 µM
[11] = second compound 0.0316 µM, first compound 0.316 µM
[12] = second compound 0.0316 µM, first compound 1 µM
[13] = second compound 0.1 µM, first compound 0.0316 µM
[14] = second compound 0.1 µM, first compound 0.1 µM
[15] = second compound 0.1 µM, first compound 0.316 µM
[16] = second compound 0.1 µM, first compound 1 µM
[17] = second compound 0.316 µM, first compound 0.0316 µM
[18] = second compound 0.316 µM, first compound 0.1 µM
[19] = second compound 0.316 µM, first compound 0.316 µM
[20] = second compound 0.316 µM, first compound 1 µM
[21] = second compound 1 µM, first compound 0.0316 µM
[22] = second compound 1 µM, first compound 0.1 µM
[23] = second compound 1 µM, first compound 0.316 µM
[24] = second compound 1 µM, first compound 1 µM

CC(C)NCC(C(=O)N1CCN(c2ncnc3c2C(C)CC3O)CC1)c1ccc(Cl)cc1 (centres undefined) + COc1c(OCCCN2CCOCC2)ccc2c3n(c(=NC(=O)c4cnc(N)nc4)nc12)CCN3
IC50 (second compound 0.00316 µM): 5280 nM | IC50 (second compound 0.01 µM): 1600 nM | IC50 (second compound 0.0316 µM): 324 nM | IC50 (second compound 0.1 µM): < 31.6 nM | IC50 (second compound 0.316 µM): < 31.6 nM | IC50 (second compound 1 µM): < 31.6 nM | viability, T/C [1]: 92.8% | viability, T/C [2]: 71% | viability, T/C [3]: 74.3% | viability, T/C [4]: 64.8% | viability, T/C (second compound 0.00316 µM, first compound 3.16 µM): 50.7% | viability, T/C (second compound 0.00316 µM, first compound 10 µM): 45.9% | viability, T/C [5]: 90.7% | viability, T/C [6]: 74.2% | viability, T/C [7]: 64% | viability, T/C [8]: 53.6% | viability, T/C (second compound 0.01 µM, first compound 3.16 µM): 45.3% | viability, T/C (second compound 0.01 µM, first compound 10 µM): 38.8% | viability, T/C [9]: 69.8% | viability, T/C [10]: 70.9% | viability, T/C [11]: 50.1% | viability, T/C [12]: 45.2% | viability, T/C (second compound 0.0316 µM, first compound 3.16 µM): 40.6% | viability, T/C (second compound 0.0316 µM, first compound 10 µM): 38.3% | viability, T/C [13]: 46.5% | viability, T/C [14]: 40.7% | viability, T/C [15]: 34.3% | viability, T/C [16]: 30.4% | viability, T/C (second compound 0.1 µM, first compound 3.16 µM): 30.2% | viability, T/C (second compound 0.1 µM, first compound 10 µM): 26.1% | viability, T/C [17]: 17.6% | viability, T/C [18]: 18.4% | viability, T/C [19]: 16% | viability, T/C [20]: 17.4% | viability, T/C (second compound 0.316 µM, first compound 3.16 µM): 15.1% | viability, T/C (second compound 0.316 µM, first compound 10 µM): 15.6% | viability, T/C [21]: 5.88% | viability, T/C [22]: 5.08% | viability, T/C [23]: 4.99% | viability, T/C [24]: 5.31% | viability, T/C (second compound 1 µM, first compound 3.16 µM): 4.66% | viability, T/C (second compound 1 µM, first compound 10 µM): 6.36%

CCN1CCN(Cc2ccc(Nc3ncc(F)c(-c4cc(F)c5nc(C)n(C(C)C)c5c4)n3)nc2)CC1 + COc1c(OCCCN2CCOCC2)ccc2c3n(c(=NC(=O)c4cnc(N)nc4)nc12)CCN3
IC50 (second compound 0.00316 µM): > 1000 nM | IC50 (second compound 0.01 µM): > 1000 nM | IC50 (second compound 0.0316 µM): 8.3 nM | IC50 (second compound 0.1 µM): < 3.16 nM | IC50 (second compound 0.316 µM): < 3.16 nM | IC50 (second compound 1 µM): < 3.16 nM | viability, T/C (second compound 0.00316 µM, first compound 0.00316 µM): 81.5% | viability, T/C (second compound 0.00316 µM, first compound 0.01 µM): 77.9% | viability, T/C [1]: 83.2% | viability, T/C [2]: 74.8% | viability, T/C [3]: 73.2% | viability, T/C [4]: 88.6% | viability, T/C (second compound 0.01 µM, first compound 0.00316 µM): 99.1% | viability, T/C (second compound 0.01 µM, first compound 0.01 µM): 75.3% | viability, T/C [5]: 70.5% | viability, T/C [6]: 71.5% | viability, T/C [7]: 67.6% | viability, T/C [8]: 72.5% | viability, T/C (second compound 0.0316 µM, first compound 0.00316 µM): 64% | viability, T/C (second compound 0.0316 µM, first compound 0.01 µM): 47.8% | viability, T/C [9]: 41.2% | viability, T/C [10]: 43.4% | viability, T/C [11]: 44.6% | viability, T/C [12]: 56.5% | viability, T/C (second compound 0.1 µM, first compound 0.00316 µM): 41.3% | viability, T/C (second compound 0.1 µM, first compound 0.01 µM): 25.1% | viability, T/C [13]: 27.7% | viability, T/C [14]: 24.4% | viability, T/C [15]: 29% | viability, T/C [16]: 45.3% | viability, T/C (second compound 0.316 µM, first compound 0.00316 µM): 13% | viability, T/C (second compound 0.316 µM, first compound 0.01 µM): 12.3% | viability, T/C [17]: 14.8% | viability, T/C [18]: 16.3% | viability, T/C [19]: 23.4% | viability, T/C [20]: 34.4% | viability, T/C (second compound 1 µM, first compound 0.00316 µM): 6.17% | viability, T/C (second compound 1 µM, first compound 0.01 µM): 5.48% | viability, T/C [21]: 7.16% | viability, T/C [22]: 6.14% | viability, T/C [23]: 12.2% | viability, T/C [24]: 24.2%
